The record followed here is patent publication US20110044991A1, “METHODS AND COMPOSITIONS FOR TREATING LYMPHOMA AND MYELOMA” (IRM LLC, priority 2006, published 2011).

Test [1] concerns lymphoma cells (mixed, B-cell lymphoma, plasmacytoma, plasmoblastoma). Nature of the test: Cytokine stimulation of lymphoma cells off stroma, Alamar Blue assay. It counts as cell-based, mouse. The following applies: 2 days after stroma removal; cytokines 0-50 ng/ml; IL-6: plasmacytomas and mixed, IL-7: B-cell and mixed lymphomas, not plasmoblastomas. As for the experimental part:
Luminescence was measured after 0 h, 24 h and 48 h after seeding of 2×10E4 luciferased lymphoma cells on the stroma cells; and F: RT-PCR analysis of transcripts from Hh pathway members and targets in spleen lymphocytes and different lymphoma cell lines.
Cell culture experiments: Lymphoma cells were infected with a retrovirus containing a pMSCV IRES puro-luc sequence and selected for 7 days with puromycin on puromycin-resistant Cdkn2a−/− stroma. […] Both were dissolved as x 1,000 stocks in DMSO. SCF was obtained from RDI, and all other cytokines were obtained from R&D systems. 5E1 anti-ShhN monoclonal antibody was obtained from the developmental hybridoma bank and was used at a concentration of 10 μg/ml. For cytokine stimulation and Shh inhibition in supernatant lymphoma cells were seeded into 96-well plates at a density of 20,000 cells per well and mitochondrial activity of viable cells was measured with an Alamar Blue Assay as described.
(The colour change of resazurin is a common sign of viable cells or microbes.)

For test [2], the system named is Eμ-Myc lymphoma cells. Nature of the test: Luciferase assay and light microscopy of luciferased lymphoma cells on stromal layer. The test is classed as cell-based, mouse. On the procedure:
For Shh pathway inhibition on stroma, 6200 stroma cells were seeded per 96-well. After 24 hours 20,000 luciferased lymphoma cells were seeded on the stroma cells and 2 hours later compound or DMSO was added. Luciferase assay was performed with Bright-glow reagent as described. To generate cells overexpressing Hh pathway members, lymphoma cells were infected with Smo, Smo 535, Smo 562, Gli1 and Fused-pMSCV IRES GFP constructs and then sorted for GFP positive cells.
In order to investigate whether the Hh signalling pathway does indeed contribute to the survival and proliferation of lymphoma cells growing on an intact stromal layer, lymphoma cells were luciferased using a retrovirus expressing a puromycin/Luc fusion cassette. 2×10E4 lymphoma cells constitutively expressing luciferase were added to each 96-well containing a stromal layer (not expressing luciferase) isolated from Cdkn2a^−/− mice. A total of 34 individual Eμ-Myc-lymphomas and 8 Cdkn2a-lymphomas were tested. A luciferase assay was performed as a readout for cell viability and proliferation and results were also documented by light microscopy.

On to IL-6: cytokine / growth factor, for which, in test [1], the “number of viable lymphoma cells / survival after cytokine stimulation” value is given as “enhance survival”.
As to `Cc1nn(-c2ccccc2)c(C)c1/C=N/N1CCN(Cc2ccccc2)CC1` [SANT-1], the “luciferase activity (viable lymphoma cells)” value in test [2] (Myc-Ly6, 48 hours, 0, 0.5, 1, 5 and 10 μM) is given as “reduced in a dose dependant manner”. Besides, in test [2] (most responsive lymphomas, 48 h on stromal layer, read-out: IC50 (concentration needed for 50% of maximal inhibition)), the IC50 is 1 to 3 µM.
“SCF: cytokine / growth factor, obtained from RDI”: the “number of viable lymphoma cells / survival after cytokine stimulation” value in test [1] is “no effect on lymphocyte growth”.
Still for that read-out and setting: in the case of GM-CSF: cytokine / growth factor it was “no effect on lymphocyte growth”.

B1: IL-7: cytokine / growth factor (protein, UniProt P13232 26-177, looked up)
Interleukin-7: DCDIEGKDGKQYESVLMVSIDQLLDSMKEIGSNCLNNEFNFFKRHICDANKEGMFLFRAARKLRQFLKMNSTGDFDLHLLKVSEGTTILLNCTGQVKGRKPAALGEAQPTKSLEENKSLKEQKKLNDLCFLKRLLQEIKTCWNKILMGTKEH
As to B1, in test [1], the “number of viable lymphoma cells / survival after cytokine stimulation” value is given as “enhance survival”.

B2: IL-11: cytokine / growth factor (protein, UniProt P20809 22-199, looked up)
Interleukin-11: PGPPPGPPRVSPDPRAELDSTVLLTRSLLADTRQLAAQLRDKFPADGDHNLDSLPTLAMSAGALGALQLPGVLTRLRADLLSYLRHVQWLRRAGGSSLKTLEPELGTLQARLDRLLRRLQLLMSRLALPQPPPDPPAPPLAPPSSAWGGIRAAHAILGGLHLTLDWAVRGLLLLKTRL
B2: the “number of viable lymphoma cells / survival after cytokine stimulation” value in test [1] is recorded as “no effect on lymphocyte growth”.

B3: Wnt3a: growth factor (protein, UniProt P56704 19-352, looked up)
Protein Wnt-3a: SYPIWWSLAVGPQYSSLGSQPILCASIPGLVPKQLRFCRNYVEIMPSVAEGIKIGIQECQHQFRGRRWNCTTVHDSLAIFGPVLDKATRESAFVHAIASAGVAFAVTRSCAEGTAAICGCSSRHQGSPGKGWKWGGCSEDIEFGGMVSREFADARENRPDARSAMNRHNNEAGRQAIASHMHLKCKCHGLSGSCEVKTCWWSQPDFRAIGDFLKDKYDSASEMVVEKHRESRGWVETLRPRYTYFKVPTERDLVYYEASPNFCEPNPETGSFGTRDRTCNVSSHGIDGCDLLCCGRGHNARAERRREKCRCVFHWCCYVSCQECTRVYDVHTCK
Turning to B3, the “number of viable lymphoma cells / survival after cytokine stimulation” value in test [1] was “no effect on lymphocyte growth”.
